Source: PubChem BioAssay (NCI)
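Protocol summary: plate cells (96-well), add compound at 5 concentrations, incubate 48 h, interpolate endpoints linearly. TGI: total growth inhibition.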 *1 amine or outer side, *2 acyl side, *3 side chain or, on linkers, in order; H or OH if unused. Where a SMILES comes first, the peptide text is derived from it. [ ]: non-standard residue; d: D form. The star is where a group is joined. X31 = CC(=O)N(C)SCC(N[*:1])C(=O)[*:2]; Cbz = O=C(OCc1ccccc1)*; Bn = c1ccc(C*)cc1

Experiments:
Assay in all cases: NCI-60 cell line screen, 48 h
A549 NSCLC = test system: A549 NSCLC
NCI-H522 lung = test system: NCI-H522 lung
A498 renal = test system: A498 renal
HS 578T breast = test system: HS 578T breast
OVCAR-5 ovarian = test system: OVCAR-5 ovarian
NCI-H23 lung = test system: NCI-H23 lung
NCI-H226 lung = test system: NCI-H226 lung
NCI/ADR-RES ovarian = test system: NCI/ADR-RES ovarian
EKVX NSCLC = test system: EKVX NSCLC
UACC-257 melanoma = test system: UACC-257 melanoma
SK-OV-3 ovarian = test system: SK-OV-3 ovarian
SK-MEL-2 melanoma = test system: SK-MEL-2 melanoma
PC-3 prostate = test system: PC-3 prostate
CAKI-1 renal = test system: CAKI-1 renal
OVCAR-3 ovarian = test system: OVCAR-3 ovarian
SK-MEL-5 melanoma = test system: SK-MEL-5 melanoma
SN12C renal = test system: SN12C renal
LOX IMVI melanoma = test system: LOX IMVI melanoma
786-0 renal = test system: 786-0 renal
HCC-2998 colon = test system: HCC-2998 colon

SMILES	TGI (A549 NSCLC) [µM]	TGI (NCI-H522 lung) [µM]	TGI (A498 renal) [µM]	TGI (HS 578T breast) [µM]	TGI (OVCAR-5 ovarian) [µM]	TGI (NCI-H23 lung) [µM]	TGI (NCI-H226 lung) [µM]	TGI (NCI/ADR-RES ovarian) [µM]	TGI (EKVX NSCLC) [µM]	TGI (UACC-257 melanoma) [µM]	TGI (SK-OV-3 ovarian) [µM]	TGI (SK-MEL-2 melanoma) [µM]	TGI (PC-3 prostate) [µM]	TGI (CAKI-1 renal) [µM]	TGI (OVCAR-3 ovarian) [µM]	TGI (SK-MEL-5 melanoma) [µM]	TGI (SN12C renal) [µM]	TGI (LOX IMVI melanoma) [µM]	TGI (786-0 renal) [µM]	TGI (HCC-2998 colon) [µM]
COc1ccc2[nH]c3c(C)c4ccnc(NCCCN(C)CCCNc5ccc6ncn7c8ccccc8c(=O)c5c67)c4c(C)c3c2c1	1.48	1.24	15.2	25	5.2	1.94	2.54	4.55	2.48	2.9	6.8	8.74	4.21	0.561	6.56	4.61	3.38	0.606	–	–
O=C(CNC(c1ccccc1)(c1ccccc1)c1ccccc1)NC1CCCCC1NC(=O)CNC(c1ccccc1)(c1ccccc1)c1ccccc1 (configuration not stated)	> 100	> 100	> 100	> 100	> 100	> 100	–	> 100	47.6	> 100	> 100	> 100	> 100	> 100	> 100	> 100	> 100	> 100	> 100	> 100
O=C(CCCl)NNC1=NCCCN1	> 100	> 100	> 100	> 100	> 100	> 100	> 100	> 100	> 100	> 100	> 100	> 100	> 100	–	> 100	> 100	> 100	> 100	> 100	> 100
CC(C)(CCCCC(C)(C)[N+](C)(C)C)[N+](C)(C)C	> 100	> 100	–	> 100	> 100	–	–	> 100	> 100	> 100	> 100	–	> 100	–	–	> 100	> 100	–	> 100	> 100
CCOC1Oc2ccccc2-c2nc(SC)ncc21 (configuration not stated)	> 100	> 100	> 100	> 100	> 100	> 100	> 100	> 100	> 100	> 100	> 100	> 100	> 100	> 100	> 100	> 100	> 100	> 100	> 100	–
Cn1c(=O)sc2cc(C(=S)N3CCC(Cc4ccccc4)CC3)ccc21	–	–	> 100	> 100	> 100	> 100	> 100	> 100	> 100	> 100	> 100	> 100	> 100	> 100	> 100	> 100	> 100	> 100	> 100	–
CN(c1cn(C2CC[C@@H](CO)O2)c(=O)[nH]c1=O)C1CCCCC1 (some centres not stated)	> 100	> 100	> 100	> 100	> 100	> 100	> 100	> 100	–	–	> 100	–	> 100	–	> 100	> 100	> 100	> 100	> 100	> 100
CC(=O)N(C)SCC(NC(=O)C(Cc1ccccc1)NC(=O)OCc1ccccc1)C(=O)NC(Cc1ccccc1)C(=O)NC(Cc1c[nH]c2ccccc12)C(=O)NC(CCCCNC(=O)OCc1ccccc1)C(=O)NC(C(=O)NC(CSN(C)C(C)=O)C(=O)NC(C(N)=O)C(C)OCc1ccccc1)C(C)OCc1ccccc1 (configuration not stated) (Cbz-F[X31]FWK(Cbz)T(Bn)[X31]T(Bn)-NH2; configuration not given here)	> 100	–	–	> 100	> 100	> 100	> 100	> 100	> 100	> 100	> 100	> 100	> 100	–	> 100	> 100	> 100	> 100	> 100	> 100
Fc1ccc(-c2sc(-c3cccs3)cc2Cc2cccs2)cc1	> 100	> 100	> 100	> 100	> 100	> 100	> 100	> 100	> 100	> 100	> 100	> 100	–	> 100	> 100	> 100	> 100	> 100	> 100	> 100
COC(=O)C1=C(OC(=O)/C=C/c2ccc(Cl)cc2)C(C(=O)OC)[C@@]2(O)[C@@H](C(=O)OC)[C@H](C)C[C@@H]1[C@@H]2C(=O)OC (some centres not stated)	> 100	23.1	–	15.5	81.7	46	61	64.6	71.8	> 100	> 100	37	69	87.3	> 100	32.2	45.7	37.7	–	–
CCOC(=O)C(C(=S)SC)c1nn2c(=O)cc(C)nc2s1 (configuration not stated)	37	42.5	–	44.9	38.7	39	34.6	54.8	34.3	44.2	47.4	41.5	37.3	37.3	34.8	35.1	34.2	29.4	36.1	47.2
C=C(CN1CC2C[C@](C(=O)OC)(c3cc4ccccc4[nH]3)C1C(OC)C2OC)S(=O)(=O)c1ccccc1 (some centres not stated)	12.6	3.79	–	10.9	13.1	9.31	18.8	20.7	13	8.5	13.8	12.3	13	11.7	10.2	10.7	11.3	3.54	10	3.73
